Source: patent US20110190137A1, “METHOD TO INHIBIT ETHYLENE RESPONSES IN PLANTS” (priority 2003, published 2011)

What was measured:
[1] = system: ethylene-induced epinasty in Patio variety tomato plants; assay: Tomato epinasty test, volatile gas treatment; format: in vivo; conditions: for Gas @ 10 ppm: visual rating of protection against ethylene-induced epinasty: gas 10 ppm v/v, 10 ppm ethylene, scale 0 to 10 (10 = complete protection); for Gas @ 1000 ppm: visual rating of protection against ethylene-induced epinasty: gas 1000 ppm v/v, 10 ppm ethylene after 4 h, scored 16 h later, scale 0 (no protection) to 10 (complete protection)
Experimental: (§1) Objective: The test procedure is designed to determine the ability of an experimental compound to block the epinastic growth response induced by ethylene in tomato plants when the experimental compound is administered either as a volatile gas or as a component of a spray solution.
(§2) Treatment chambers are of an appropriate size for the test plants and are airtight. Each is fitted with a reusable septum to be used for injection of ethylene. Test plants are Patio variety tomato seedlings planted two plants per three inch square plastic pot.
Volatile gas treatment entails placing two pots of Patio var. tomatoes into a polystyrene 4.8 L volume treatment chamber along with one-half (upper or lower section) of a 50×9 mm plastic Petri dish containing a Gelman filter pad. The appropriate amount of experimental compound, dissolved in 1.0 ml acetone, is pipetted onto the filter pad and the chamber immediately sealed. Four hours later ethylene gas equal to 10 ppm v/v final concentration is injected into the sealed chamber. Sixteen hours later the chambers are opened in an exhaust hood, allowed to air and the plants scored visually for the degree of protection against ethylene-induced epinasty conferred by the experimental compound when compared to ethylene treated and untreated controls on a scale of 0 to 10. A rating of 10 means complete protection. A rating of 0 means no protection from the effects of ethylene. Gas treatment concentrations are volume/volume.

[2] = system: ethylene-induced epinasty in Patio variety tomato plants; assay: Tomato epinasty test, spray application treatment; format: in vivo; conditions: for Spray @10 ppm: visual rating of protection against ethylene-induced epinasty: spray 10 ppm in 10% acetone/90% water, 0.05% Silwett L-77, 10 ppm ethylene, scale 0 to 10 (10 = complete protection)
Experimental: as §1, §2
Spray application treatment entails using a DeVilbiss atomizer to completely cover all foliage and stems of two pots of Patio var. tomato plants with the appropriate amount of experimental compound dissolved in 10% acetone/90% water with 0.05% Silwett L-77 surfactant. Plants are air-dried in a drying hood for four hours then transferred to a 4.8 L polystyrene chamber which is sealed.
Ethylene gas equal to 10 ppm v/v final concentration is injected into the sealed chamber. Sixteen hours later the chambers are opened in an exhaust hood, allowed to air and the plants scored visually for the degree of protection against ethylene-induced epinasty conferred by the experimental compound when compared to ethylene treated and untreated controls on a scale of 0 to 10. A rating of 10 means complete protection. A rating of 0 means no protection from the effects of ethylene.

| Structure (SMILES) | Gas @ 10 ppm: visual rating of protection against ethylene-induced epinasty [1] | Gas @ 1000 ppm: visual rating of protection against ethylene-induced epinasty [1] | Spray @10 ppm: visual rating of protection against ethylene-induced epinasty [2] | Spray @ 1000 ppm: rating of protection against epinasty ([2]; spray 1000 ppm (in cell), scale 0 to 10) | Gas @ 343.4 ppm: rating of protection against epinasty ([1]; gas 343.4 ppm (in cell), scale 0 to 10) |
| --- | --- | --- | --- | --- | --- |
| ClC1=C(Cc2ccccc2)C1 [Compound 46, 1-Benzyl-2-chlorocyclopropene] | 5 | 10 | 0 |  |  |
| CCCCCCCCC1=C(Br)C1 [Compound 71, 1-Bromo-2-octyl-cyclopropene] | 1 | 10 | 3 |  |  |
| CC(C)(C)OC(=O)N1CC(C(=O)OCCC2=CC2)CS1 (stereo not shown) [Compound 52] | 0 | 3 | 2 | 10 |  |
| C[Si](C)(CCCCCCC1=CC1)c1ccccc1 [Compound 4, 1-(6-(Phenyldimethylsilyl)-hexyl)-cyclopropene] | 4 |  | 10 |  |  |
| CCCCCCCCCC1(C)C=C1 [Compound 73, 3-Methyl-3-nonyl-cyclopropene] | 0 | 8 | 0 |  |  |
| CC[Si](CC)(CC)CC1=CC1 [Compound 63, 1-Triethylsilylmethylcyclopropene] | 10 |  | 10 |  |  |
| C1=C(CC2CCCCC2)C1 [Compound 23] | 10 |  | 10 |  |  |
| CCCCCCCCC1=C(B(O)O)C1 [Compound 86, 2-Octyl-1-(boronic acid)-cyclopropene] | 10 |  | 0 |  |  |
| CCCCCCCCC1=C([Si](C)(C)C)C1 [Compound 67, 2-Octyl-1-trimethylsilylcyclopropene] | 6 |  | 3 |  |  |
| Cc1ccc(C(=O)OCCCCC2=CC2)cc1 [Compound 44, 1-(4-Methylphenylcarbonyloxybutyl)-cyclopropene] | 0 | 7 | 0 |  |  |
| CC1(COc2ccccc2)C=C1 [Compound 7, 3-Methyl-3-Phenoxymethylcycloprop-2-ene] | 4 | 10 | 2 |  |  |
| C1=C(CCCCc2ccccc2)C1 [Compound 27] | 10 |  | 10 |  |  |
| C1=C(CCCC2OCCO2)C1 [Compound 33] | 8 |  | 0 |  |  |
| C1=C(CCC2CCCCC2)C1 [Compound 21] | 10 |  | 10 |  |  |
| O=C(OCCC1=CC1)c1cc2ccccc2o1 [Compound 49] | 0 |  | 0 |  | 9(@343.4 |
| CCC1=C(COc2cccc(C(F)(F)F)c2)C1 [Compound 37, 1-(3-trifluoromethylphenoxymethyl)-2-ethylcyclopropene] | 0 | 2 | 0 |  |  |
| O=C(OCCC1=CC1)c1cnc(Cl)c(Cl)c1 [Compound 50] | 0 | 9 | 0 |  |  |
| CCCCCCCC1=C(C)C1 [Compound 74, 1-Heptyl-2-methyl-cyclopropene] | 0 | 10 | 0 |  |  |
| C1=C(CCCCCCCN(c2ccccc2)c2ccccc2)C1 [Compound 13, 7-(diphenylamino)-1-heptylcyclopropene] | 0 |  | 10 |  |  |
| Clc1ccc(SCCC2=CC2)cc1 [Compound 9, 1-(2-(4-Chlorophenylthio)ethyl)cyclopropene] | 10 |  | 10 |  |  |
| CCCC[Si](C)(C)C1=C(C)C1 [Compound 80, 1-(Butyldimethylsilyl)-2-methylcyclopropene] | 0 | 7 | 0 |  |  |
| C1=C(CCCC2OCCCO2)C1 [Compound 3, 2-(3-Cycloprop-1-enyl-propyl)-[1,3]dioxane] | 8 |  | 0 |  |  |
| C[Si](C)(C)CCC1C=C1 [Compound 66, 2-(Trimethylsilyl)-ethylcycloprop-2-ene] | 10 |  | 10 |  |  |
| BrC1=C(Cc2ccccc2)C1 [Compound 45, 1-Benzyl-2-bromocyclopropene] | 5 | 10 | 0 |  |  |
